# Measured values: US7598389B2, “Silylated carboxamides” (Bayer Cropscience AG, priority 2003, dated 2009)
# Test system: not listed separately
# Experiment: log P determination by HPLC on reverse-phase column (EEC Directive 79/831 Annex V.A8)
# Format: physicochemical
# Details: Table 1, C 18 reverse-phase column, 43° C., acidic range (pH 2.3)
# Experimental: The given log P values were determined in accordance with EEC Directive 79/831 Annex V.A8 by HPLC (High Performance Liquid Chromatography) on a reverse-phase column (C 18). Temperature: 43° C.
# Mobile phases for the determination in the acidic range (pH 2.3): 0.1% aqueous phosphoric acid, acetonitrile; linear gradient from 10% acetonitrile to 90% acetonitrile.
# Calibration was carried out using unbranched alkan-2-ones (3 to 16 carbon atoms) with known log P values (determination of the log P values by the retention times using linear interpolation between two successive alkanones).
row,Compound,logP
1,CC(C[Si](C)(C)C)c1ccccc1NC(=O)c1ccccc1I (racemic) [Example 2],4.67
2,CC(C[Si](C)(C)C)c1ccccc1NC(=O)c1ccccc1C(F)(F)F (racemic) [Example 3],4.63
3,CC(C[Si](C)(C)C)c1ccccc1NC(=O)c1ccccc1Br (racemic) [Example 7],4.58
4,CC(C[Si](C)(C)C)c1ccccc1NC(=O)c1occc1I (racemic) [Example 11],4.73
5,CC(C[Si](C)(C)C)c1ccccc1NC(=O)c1sccc1I (racemic) [Example 12],5.05
6,CC(C[Si](C)(C)C)c1ccccc1NC(=O)c1cn(C)nc1I (racemic) [Example 15],3.94
7,Cc1occc1C(=O)Nc1ccccc1C(C)C[Si](C)(C)C (racemic) [Example 17],4.33
8,CC(C[Si](C)(C)C)c1cc(F)ccc1NC(=O)c1ccccc1C(F)(F)F (racemic) [Example 22],4.61
9,CC(C[Si](C)(C)C)c1cc(F)ccc1NC(=O)c1ccccc1I (racemic) [Example 23],4.64
10,C[Si](C)(C)CCc1ccccc1NC(=O)c1ccccc1I [Example 4],4.40
11,C[Si](C)(C)CCc1ccccc1NC(=O)c1ccccc1Cl [Example 5],4.29
12,C[Si](C)(C)CCc1ccccc1NC(=O)c1ccccc1C(F)(F)F [Example 6],4.37
13,Cn1cc(C(=O)Nc2ccccc2CC[Si](C)(C)C)c(I)n1 [Example 8],3.68
14,Cn1cc(C(=O)Nc2ccccc2CC[Si](C)(C)C)c(C(Cl)Cl)n1 [Example 9],3.95
15,Cn1nc(C(F)(F)F)c(C(=O)Nc2ccccc2CC[Si](C)(C)C)c1F [Example 10],4.19
16,Cn1cc(C(=O)Nc2ccccc2CC[Si](C)(C)C)c(Cl)n1 [Example 14],3.89
17,Cc1occc1C(=O)Nc1ccccc1CC[Si](C)(C)C [Example 16],4.03
18,C[Si](C)(C)C#Cc1ccccc1NC(=O)c1ccccc1C(F)(F)F [Example 18],4.78
19,C[Si](C)(C)C#Cc1ccccc1NC(=O)c1ccccc1I [Example 19],4.97
20,C[Si](C)(C)C#Cc1ccccc1NC(=O)c1ccccc1Cl [Example 20],4.96
21,C[Si](C)(C)C#Cc1ccccc1NC(=O)c1ccccc1Br [Example 21],4.93
22,C[Si](C)(C)CCc1ccccc1NC(=O)c1sccc1I [Example 24],4.85
23,C[Si](C)(C)CCc1cc(F)ccc1NC(=O)c1sccc1I [Example 25],4.79
24,C[Si](C)(C)CCc1cc(F)ccc1NC(=O)c1ccccc1C(F)(F)F [Example 26],4.39

# Same assay, conditions: pH 2.3, C 18 reverse-phase column, 43° C.
row,Compound,chromatographic logP
1,"C[Si](C)(C)CCc1ccccc1NC(=O)c1ccccc1Br [Example 1, 2-bromo-N-[2-(2-trimethylsilyl-ethyl)phenyl]benzamide]",4.32
2,"CC(C[Si](C)(C)C)c1ccccc1N (stereo not shown) [Example (III-1), 2-(1-methyl-2-trimethylsilylethyl)phenylamine]",3.05
3,"C[Si](C)(C)CCc1ccccc1N [Example (III-2), 2-(2-trimethylsilylethyl)phenylamine]",2.58
4,C[Si](C)(C)C#Cc1ccccc1[N+](=O)[O-] [trimethyl-(2-nitrophenyl-ethynyl)silane],4.12

# Test system: Venturia inaequalis
# Experiment: Venturia test (apple)/protective
# Format: in vivo
# Details: 240 h, apple plants, protective, application rate 100 g/ha, evaluation 10 days after inoculation, read-out: Efficacy in %
# Experimental: Venturia Test (Apple)/Protective
# (§1) To produce a suitable preparation of active compound, 1 part by weight of active compound is mixed with the stated amounts of solvent and emulsifier, and the concentrate is diluted with water to the desired concentration.
# (§2) To test for protective activity, young plants are sprayed with the preparation of active compound at the stated application rate. After the spray coating has dried on, the plants are inoculated with an aqueous conidia suspension of the apple pathogen Venturia inaequalis and then remain in an incubation cabin at about 20° C. and 100% relative atmospheric humidity for one day.
# The plants are then placed in a greenhouse at about 21° C. and a relative atmospheric humidity of about 90%.
# Evaluation is carried out 10 days after the inoculation. 0% means an efficacy which corresponds to that of the control, whereas an efficacy of 100% means that no infection is observed.
row,Compound,pest or weed control at 100 g/ha [%]
1,CC(C[Si](C)(C)C)c1ccccc1NC(=O)c1ccccc1C(F)(F)F (stereo not shown) [drawing 54],99
2,CC(C[Si](C)(C)C)c1ccccc1NC(=O)c1ccccc1I (stereo not shown) [drawing 55],100
3,C[Si](C)(C)CCc1ccccc1NC(=O)c1ccccc1C(F)(F)F [drawing 56],84
4,C[Si](C)(C)CCc1ccccc1NC(=O)c1ccccc1Br [drawing 57],87
5,Cn1nc(C(F)(F)F)c(C(=O)Nc2ccccc2CC[Si](C)(C)C)c1F [drawing 58],100
6,Cn1cc(C(=O)Nc2ccccc2CC[Si](C)(C)C)c(I)n1 [drawing 59],100
7,Cc1ccsc1C(=O)Nc1ccccc1CC[Si](C)(C)C [drawing 60],100
8,C[Si](C)(C)CCc1cc(F)ccc1NC(=O)c1sccc1I [drawing 61],100
9,CC(C[Si](C)(C)C)c1ccccc1NC(=O)c1occc1I (stereo not shown) [drawing 62],100
10,CC(C[Si](C)(C)C)c1ccccc1NC(=O)c1sccc1I (stereo not shown) [drawing 63],100
11,CC(C[Si](C)(C)C)c1ccccc1NC(=O)c1cn(C)nc1I (stereo not shown) [drawing 64],99

# Test system: Sphaerotheca fuliginea
# Experiment: Sphaerotheca test (cucumber)/protective
# Format: in vivo
# Details: cucumber plants, protective; application rate 750 g/ha; evaluation 7 days after inoculation
# Experimental: Sphaerotheca Test (Cucumber)/Protective
# as §1
# To test for protective activity, young cucumber plants are sprayed with the preparation of active compound at the stated application rate. One day after the treatment, the plants are inoculated with a spore suspension of Sphaerotheca fuliginea. The plants are then placed in a greenhouse at 70% relative atmospheric humidity and a temperature of 23° C.
# Evaluation is carried out 7 days after the inoculation. 0% means an efficacy which corresponds to that of the control, whereas an efficacy of 100% means that no infection is observed.
row,Compound,Efficacy in % [%]
1,CC(C[Si](C)(C)C)c1ccccc1NC(=O)c1ccccc1C(F)(F)F (stereo not shown) [drawing 65],100
2,CC(C[Si](C)(C)C)c1ccccc1NC(=O)c1ccccc1I (stereo not shown) [drawing 66],100
3,C[Si](C)(C)CCc1ccccc1NC(=O)c1ccccc1Br [drawing 67],100

# Test system: Puccinia recondite
# Experiment: Puccinia test (wheat)/protective
# Format: in vivo
# Details: 240 h, wheat plants, protective, application rate 500 g/ha, evaluation ten days after inoculation, read-out: Efficacy in %
# Experimental: Puccinia Test (Wheat)/Protective
# To produce a suitable preparation of active compound, 1 part by weight of active compound is mixed with the stated amount of solvent and emulsifier, and the concentrate is diluted with water to the desired concentration.
# as §2, with “sprayed” for “inoculated”, “a” for “an aqueous”, “Puccinia recondite. The plants” for “the apple pathogen Venturia inaequalis and then”, “at” for “at about”, “48 hours.” for “one day.”
# The plants are then placed in a greenhouse at a temperature of about 20° C. and a relative atmospheric humidity of 80% to promote the development of rust pustules.
# Evaluation is carried out ten days after the inoculation. 0% means an efficacy which corresponds to that of the control, whereas an efficacy of 100% means that no infection is observed.
row,Compound,pest or weed control at 500 g/ha [%]
1,CC(C[Si](C)(C)C)c1ccccc1NC(=O)c1ccccc1Br (stereo not shown),100
2,C[Si](C)(C)CCc1ccccc1NC(=O)c1ccccc1C(F)(F)F [drawing 68],93
3,CC(C[Si](C)(C)C)c1ccccc1NC(=O)c1ccccc1I (stereo not shown) [drawing 69],100
4,C[Si](C)(C)CCc1ccccc1NC(=O)c1ccccc1I [drawing 70],100
5,C[Si](C)(C)CCc1ccccc1NC(=O)c1ccccc1Br [drawing 71],100
6,Cn1cc(C(=O)Nc2ccccc2CC[Si](C)(C)C)c(I)n1 [drawing 72],100
7,Cc1occc1C(=O)Nc1ccccc1CC[Si](C)(C)C [drawing 73],100
8,Cc1ccsc1C(=O)Nc1ccccc1CC[Si](C)(C)C [drawing 74],100
9,C[Si](C)(C)CCc1ccccc1NC(=O)c1sccc1I [drawing 75],100
10,C[Si](C)(C)CCc1cc(F)ccc1NC(=O)c1sccc1I [drawing 76],100
11,CC(C[Si](C)(C)C)c1ccccc1NC(=O)c1occc1I (stereo not shown) [drawing 77],100
12,CC(C[Si](C)(C)C)c1ccccc1NC(=O)c1sccc1I (stereo not shown) [drawing 78],100
13,CC(C[Si](C)(C)C)c1ccccc1NC(=O)c1cn(C)nc1I (stereo not shown) [drawing 80],100
